Columns and labels:
661W or C6 cells [1] = test: XF FCCP-uncoupled oxygen consumption rate assay (IBMX challenge); assay type: cell-based; conditions: 24 h; for activity at 0.1 µM: 100 nM compound; for activity at 0.01 µM: 10 nM compound
Procedure: XF FCCP-Uncoupled Oxygen Consumption Rate Assay
The XF FCCP-uncoupled oxygen consumption rate assay assesses mitochondrial capacity by measuring cellular respiration. It was shown that the maximum FCCP-uncoupled oxygen consumption rate (OCR) was a good estimate of maximal mitochondrial capacity (Beeson 2010) and that IBMX treatment of 661W or C6 cells for 24 h caused a loss in maximal uncoupled OCR (Perron 2013). Thus, cells were pretreated with the exemplified compounds for 1 h, added 600 μM IBMX and then measured the uncoupled rate after 24 h. The OCR measurements were performed using a Seahorse Bioscience XF instrument (Seahorse Bioscience, Billerica, Md.), as previously published (Perron 2013). O2 leakage through the plastic sides and bottom of the plate was accounted for using the AKOS algorithm in the XF software package. Cells were plated on 96- or 24-well custom plates designed for use in the XF and grown to confluency in DMEM+5% FBS (48 h). The medium was then replaced with DMEM+1% FBS for 24 h, along with any treatments.

661W or C6 cells [2] = test: MTT assay (protection against calcium-ionophore A23187); assay type: cell-based; conditions: for percent protection against ionophore-induced loss of MTT signal at 0.001 µM: 1 nM compound; for percent protection against ionophore-induced loss of MTT signal at 0.0008 µM: 800 pM compound; for percent protection against ionophore-induced loss of MTT signal at 0.01 µM: 10 nM compound
Procedure: The compound 3-(4,5-Dimethylthiazol-2-yl)-2,5-diphenyltetrazolium bromide (MTT) is a tetrazolium ion that is reduced to a blue formazan dye via several families of NAD(P)H-dependent oxidoreductases. Formation of the formazan dye from MTT or other related tetrazolium dyes are commonly used as a viability assay even though, in fact, the assay is a metabolic capacity assay.
In this assay, 661W or C6 cells were maintained in DMEM supplemented with 10% FBS. 100 μL of 70,000 cells/mL cells were seeded into each well of 96 well plates using DMEM supplemented with 5% FBS. Cells were then allowed to grow to confluency for 48 hours. The compounds of the invention were added in 2 μL media and calcium-ionophore A23187 was then added in 1 μL for a final concentration of 1 μM and after 24 h, 20 uL of 2 μg/mL MTT were added to each well and the cells were incubated for another 4 h after which 100 μL of 1% SDS in 0.01 M aqueous HCl were added to each well and the plates were incubated overnight. Absorbance was measured at […] (background correction). The 1 μM ionophore A23187 caused about 50% loss in MTT signal at 24 h. Protection was calculated as the increase in absorbance of treatment groups normalized to the vehicle control.

[3] = system: rd1 mouse retinal explants (photoreceptors); test: Retinal degeneration assay (rd1 mouse retina organ cultures); assay type: cell-based; conditions: explants cultured 11 days, rows of photoreceptors in ONL
Description: Retinal Degeneration Assay
It was reasoned that the compounds' activities would enable them to protect against loss of photoreceptors in retinal degenerative animal models. As a translational bridge between the cell line-based assays and in vivo animal studies, mouse retina organ cultures were utilized. These retinal explants were a powerful ex vivo screening tool, which allowed the testing of photoreceptor cell survival within the retinal network, and the effects of a specific compound were tested like in an in vitro system, without systemic interference. In this assay, the rd1 mouse was utilized. The genotype of the rd1 mouse has a mutation in the β-subunit of the phosphodiesterase gene. […] The genetic deficit and the retinal pathology were very similar to that observed in the patients with βPDE-dependent RP. In these mice, rod photoreceptor degeneration started after postnatal day 10 (P10), progressing rapidly, such that at P21, only 1-2 rows of photoreceptor remained, mainly representing cones. Finally, the rd1 mouse retina was amenable to culturing, replicating both retinal development and degeneration, following the same time course as in vivo. […] At the end of the experiments, tissues were fixed, sectioned and stained with 0.1% toluidine and the numbers of rows of photoreceptors remaining in the outer nuclear layer (ONL) were counted.

[4] = system: Balb/c mice photoreceptors; test: Light model assay (constant light damage, eyedrops); assay type: in vivo, mouse; conditions: 125 μM eyedrops once per day; continuous light 7 days; assessed 10 days after onset
Description: The light model assay is generally accepted as a model of age related macular degeneration (AMD). […] In particular, oxidative damage has been detected by immunohistochemistry, detecting the presence of oxidized and tyrosine-phosphorylated proteins as well as the upregulation of endogenous antioxidants such as thioredoxin and glutathione peroxidase. […] Additional indirect evidence for the involvement of oxidative stress in photoreceptor degeneration has been provided by treatment of photodamaged retinas with antioxidants such as dimethylthiourea, or the treatment of N-methyl-N-nitrosourea (MNU)-challenged rats with the antioxidant DHA.
The light model assay was used to further test the therapeutic potential of the compounds of the invention. Photoreceptors from albino animals are very sensitive to constant light, lacking the RPE pigment to protect them. Thus, Balb/c mice were exposed to continuous light for 7 days, which caused loss of about 50% of the photoreceptor cells as measured via histology. To test the potential therapeutic efficacy, eyedrops were formulated in 0.1% Bij 35 in […], applied once or twice daily throughout the period of light exposure, and assessed their effect on the light-induced degeneration of photoreceptor cells morphologically and electrophysiologically, 10 days after the onset of the CL exposure.

[5] = 1 μM A23187, 24 h, read-out: MTT Protection(%, concentration)
[6] = 1 h pretreatment, 600 μM IBMX, read-out: XF FCCP OCR (% Ctrl, concentration)

Q: How did the “decrease in the uncoupled rate (OCR)” value (661W or C6 cells [1]; IBMX treatment alone, 600 μM) turn out when `CC(C)Cn1c(=O)n(C)c(=O)c2[nH]cnc21` [IBMX, reference compound] was run?
A: ~50%

Q: How did the percent protection against ionophore-induced loss of MTT signal at 1 µM (661W or C6 cells [2]; 1 μM compound, 1 μM A23187, 24 h, read-out: MTT Protection(%, concentration)) turn out when `CCOC(=O)c1cc(-c2ccccn2)nn1CC(=O)c1cc(OC)ccc1OC` [Example 11, Ethyl 1-(2-(2,5-dimethoxyphenyl)-2-oxoethyl)-3-(pyridin-2-yl)-1H-pyrazole-5-carboxylate] was run?
A: 28.3%

Q: `CCOC(=O)c1cc(-c2cccnc2)nn1CC(=O)c1cc(OC)ccc1OC` [Example 3, Ethyl 1-(2-(2,5-dimethoxyphenyl)-2-oxoethyl)-3-(pyridin-3-yl)-1H-pyrazole-5-carboxylate] was tested. Which percent protection against ionophore-induced loss of MTT signal at 0.001 µM (661W or C6 cells [2]; [5]) did it give?
A: 43.5%

Q: For `CCOC(=O)c1cc([Si](C)(C)C)n(CC(=O)c2cccnc2)n1` [Example 9, Ethyl 1-(2-oxo-2-(pyridin-3-yl)ethyl)-5-(trimethylsilyl)-1H-pyrazole-3-carboxylate], which percent protection against ionophore-induced loss of MTT signal at 0.001 µM (661W or C6 cells [2]; [5]) is on record?
A: 59%

Q: And the activity at 0.1 µM (661W or C6 cells [1]; [6])?
A: 67%

Q: Which percent protection against ionophore-induced loss of MTT signal at 0.0008 µM (661W or C6 cells [2]; [5]) does the source give for `CCOC(=O)c1cc(-c2ccccn2)nn1CC(=O)c1ccc(OC)cc1OC` [Example 1, Ethyl 1-(2-(2,4-dimethoxyphenyl)-2-oxoethyl)-3-(pyridin-2-yl)-1H-pyrazole-5-carboxylate] here?
A: 10.4%

Q: What about the activity at 1 µM (661W or C6 cells [1]; 1 uM compound, 1 h pretreatment, 600 μM IBMX, read-out: XF FCCP OCR (% Ctrl, concentration)) of the same compound?
A: 58%

Q: For `CCOC(=O)c1cc([Si](C)(C)C)nn1CC(=O)c1cccnc1` [Example 10, Ethyl 1-(2-oxo-2-(pyridin-3-yl)ethyl)-3-(trimethylsilyl)-1H-pyrazole-5-carboxylate], which percent protection against ionophore-induced loss of MTT signal at 0.001 µM (661W or C6 cells [2]; [5]) is on record?
A: 47.8%

Q: `CCOC(=O)c1cc([Si](C)(C)C)nn1Cc1cc(OC)c(OC)c(OC)c1` [Example 7, Ethyl 1-(3,4,5-trimethoxybenzyl)-3-(trimethylsilyl)-1H-pyrazole-5-carboxylate] was tested. Which percent protection against ionophore-induced loss of MTT signal at 0.01 µM (661W or C6 cells [2]; [5]) did it give?
A: 40%

Q: What does the source list for `CCOC(=O)c1cc(-c2ccccn2)nn1Cc1cccnc1` [Example 6, Ethyl 3-(pyridin-2-yl)-1-(pyridin-3-ylmethyl)-1H-pyrazole-5-carboxylate]?
A: percent protection against ionophore-induced loss of MTT signal at 0.01 µM (661W or C6 cells [2]; [5]): 73.5%; activity at 0.01 µM (661W or C6 cells [1]; [6]): 75%

Q: `CCOC(=O)c1cc([Si](C)(C)C)nn1CC(=O)c1cc(OC)ccc1OC` [Example 5, Ethyl 1-(2-(2,5-dimethoxyphenyl)-2-oxoethyl)-3-(trimethylsilyl)-1H-pyrazole-5-carboxylate] was tested. Which percent protection against ionophore-induced loss of MTT signal at 0.01 µM (661W or C6 cells [2]; [5]) did it give?
A: 76.6%

Q: And the activity at 0.01 µM (661W or C6 cells [1]; [6])?
A: 72%

Q: Which results are given for `CCOC(=O)c1cc([Si](C)(C)C)nn1CC(=O)c1ccc(OC)cc1OC` [Example 4, Ethyl 1-(2-(2,4-dimethoxyphenyl)-2-oxoethyl)-3-(trimethylsilyl)-1H-pyrazole-5-carboxylate]?
A: percent protection against ionophore-induced loss of MTT signal at 0.01 µM (661W or C6 cells [2]; [5]): 87%; activity at 0.01 µM (661W or C6 cells [1]; [6]): 67%; rd1 protection (concentration, # of rows) ([3]; 10 nM): 10 nM 3.2 # of rows; LD Protection (concentration, # of rows) [4]: 125 μM 6.42 # of rows

Q: Which results are given for `CCOC(=O)c1cc(-c2ccccn2)n(CC(=O)c2ccc(OC)cc2OC)n1` [Example 2, Ethyl 1-(2-(2,4-dimethoxyphenyl)-2-oxoethyl)-5-(pyridin-2-yl)-1H-pyrazole-3-carboxylate]?
A: percent protection against ionophore-induced loss of MTT signal at 0.0008 µM (661W or C6 cells [2]; [5]): 73.9%; activity at 0.1 µM (661W or C6 cells [1]; [6]): 62%; rd1 protection (concentration, # of rows) ([3]; 20 nM): 20 nM 4.46 # of rows

Q: For `CNc1ccc2oc(C[C@H]3O[C@@]4(CC[C@H]3C)O[C@H]([C@H](C)C(=O)c3ccc[nH]3)[C@H](C)C[C@H]4C)nc2c1C(=O)O` [Example A23187, reference compound], which “loss in MTT signal” value (661W or C6 cells [2]; 1 μM ionophore alone, 24 h) is on record?
A: about 50%

Q: Which percent protection against ionophore-induced loss of MTT signal at 0.001 µM (661W or C6 cells [2]; [5]) does the source give for `CCOC(=O)c1cc(C(C)C)nn1Cc1c[nH]c2ccccc12` [Example 12, Ethyl 1-((1H-indol-3-yl)methyl)-3-isopropyl-1H-pyrazole-5-carboxylate] here?
A: 59.4%

Q: Which percent protection against ionophore-induced loss of MTT signal at 0.001 µM (661W or C6 cells [2]; [5]) does the source give for `CCOC(=O)c1cc(-c2cccnc2)nn1CC(=O)c1ccc(OC)cc1OC` [Example 8, Ethyl 1-(2-(2,4-dimethoxyphenyl)-2-oxoethyl)-3-(pyridin-3-yl)-1H-pyrazole-5-carboxylate] here?
A: 75.6%

Q: And the activity at 0.1 µM (661W or C6 cells [1]; [6])?
A: 64%

— US9556207B2, “Pyrazole compounds, compositions and methods for treatment of degenerative diseases and disorders” (MUSC FOUNDATION FOR RESEARCH DEVELOPMENT, priority 2013, dated 2017)
